Laboratory results from ChEMBL document CHEMBL6087460, “Generating a Peptide Library Using the Repeats of Amino Acid Scaffolds Created by Sliding the Framework of a 7-mer Human Chemerin Segment and Discovery of Potent Antibacterial and Antimycobacterial Peptides” (J Med Chem, 2025).
Where a SMILES comes first, the peptide text is derived from it.

Assays:
[1] = Drug localization in cell membrane of Escherichia coli ATCC 25922 at 3 times MIC by confocal microscopy; format: ADME, cell membranes
[2] = Drug localization in cytoplasm of Mycobacterium smegmatis at 1 ug/ml by confocal microscopy; format: ADME, subcellular; conditions: mycolicibacterium smegmatis; dose 1 µg/ml

SMILES	Drug uptake [1]	Drug uptake [2]
CC(C)C[C@H](NC(=O)[C@H](CCCNC(=N)N)NC(=O)CNC(=O)[C@@H](NC(=O)[C@H](CC(C)C)NC(=O)[C@H](CCCNC(=N)N)NC(=O)CNC(=O)[C@@H](NC(=O)[C@H](CC(C)C)NC(=O)[C@H](CCCNC(=N)N)NC(=O)CNC(=O)[C@@H](NC(=O)[C@H](CC(C)C)NC(=O)[C@H](CCCNC(=N)N)NC(=O)CNC(=O)c1cc(C(=O)O)ccc1-c1c2ccc(=[N+](C)C)cc-2oc2cc(N(C)C)ccc12)C(C)C)C(C)C)C(C)C)C(=O)N[C@H](C(=O)O)C(C)C.[Cl-] (HELM PEPTIDE1{[CN(C)c1ccc2c(-c3ccc(C(=O)O)cc3C(=O)[*:2])c3ccc(=[N+](C)C)cc-3oc2c1].G.R.L.V.G.R.L.V.G.R.L.V.G.R.L.V}$$$$V2.0)	Active	Active
CC(C)C[C@H](NC(=O)[C@@H](NC(=O)c1cc(C(=O)O)ccc1-c1c2ccc(=[N+](C)C)cc-2oc2cc(N(C)C)ccc12)C(C)C)C(=O)NCC(=O)N[C@@H](CCCNC(=N)N)C(=O)N[C@H](C(=O)N[C@@H](CC(C)C)C(=O)NCC(=O)N[C@@H](CCCNC(=N)N)C(=O)N[C@H](C(=O)N[C@@H](CC(C)C)C(=O)NCC(=O)N[C@@H](CCCNC(=N)N)C(=O)N[C@H](C(=O)N[C@@H](CC(C)C)C(=O)NCC(=O)N[C@@H](CCCNC(=N)N)C(=O)O)C(C)C)C(C)C)C(C)C.[Cl-] (HELM PEPTIDE1{[CN(C)c1ccc2c(-c3ccc(C(=O)O)cc3C(=O)[*:2])c3ccc(=[N+](C)C)cc-3oc2c1].V.L.G.R.V.L.G.R.V.L.G.R.V.L.G.R}$$$$V2.0)	Active	Active
